# Columns and labels:
# Assay type in all cases: in vivo
# [1] = test system: all the transformed Arabidopsis thaliana T1 plants (ALT-1, ALT-2 and ALT-3); experiment: Herbicide tolerance of Arabidopsis thaliana T1 plants; conditions: 34 g ai/ha; summary of Table 1 and FIG. 4
# From the text: At cytoplasmic ALT-1-01 T1 plants, At chloroplastic ALT-1-01 T1 plants, At cytoplasmic ALT-2-01 T1 plants, At chloroplastic ALT-2-01 T1 plants, At cytoplasmic ALT-3-01 T1 plants, At chloroplastic ALT-3-01 T1 plants and wild-type Arabidopsis thaliana plants were sprayed with halosulfuron-methyl (34 g ai/ha, 1-fold field concentration) and a blank solvent (water), respectively. Plants were counted for the resistance situations 14 days after spraying: those having a consistent growth status with the blank solvent (water) group after 14 days were classified as highly resistant plants, those having a bolting height less than ½ of that of the blank solvent (water) group after 14 days were classified as moderately resistant plants, those still not capable of bolting after 14 days were classified as poorly resistant plants, and those dead after 14 days were classified as non-resistant plants. Since each Arabidopsis thaliana T1 plant was an independent transformation event, a significant difference in individual T1 responses could be expected at a given dose.
# At cytoplasmic ALT-1-01 T1 plants, At chloroplastic ALT-1-01 T1 plants, At cytoplasmic ALT-2-01 T1 plants, At chloroplastic ALT-2-01 T1 plants, At cytoplasmic ALT-3-01 T1 plants, At chloroplastic ALT-3-01 T1 plants and wild-type Arabidopsis thaliana plants in Example 4 were sprayed with iodosulfuron-methyl (10 g ai/ha, 1-fold field concentration), mesosulfuron (14 g ai/ha, 1-fold field concentration) and oxasulfuron (60 g ai/ha, 1-fold field concentration), respectively, in addition to halosulfuron-methyl (34 g ai/ha, 1-fold field concentration) and the blank solvent (water). Plants were counted for the resistance situation 14 days after spraying: those having a consistent growth status with the blank solvent (water) group after 14 days were classified as highly resistant plants, those having a bolting height less than ½ of that of the blank solvent (water) group after 14 days were classified as moderately resistant plants, those still not capable of bolting after 14 days were classified as poorly resistant plants, and those dead after 14 days were classified as non-resistant plants. Since each Arabidopsis thaliana T1 plant was an independent transformation event, a significant difference in individual T1 responses could be expected at a given dose.
# [2] = test system: wild-type soybean plants (CK1); experiment: Halosulfuron-methyl tolerance of soybean plants (damage degree)
# From the text: The herbicide tolerance effects of Gm cytoplasmic ALT-1-01 soybean plants, Gm chloroplastic ALT-1-01 soybean plants, Gm cytoplasmic ALT-2-01 soybean plants, Gm chloroplastic ALT-2-01 soybean plants, Gm cytoplasmic ALT-3-01 soybean plants, Gm chloroplastic ALT-3-01 soybean plants and wild-type soybean plants on halosulfuron-methyl were detected (at seedling stage), respectively.
# Gm cytoplasmic ALT-1-01 soybean plants, Gm chloroplastic ALT-1-01 soybean plants, Gm cytoplasmic ALT-2-01 soybean plants, Gm chloroplastic ALT-2-01 soybean plants, Gm cytoplasmic ALT-3-01 soybean plants, Gm chloroplastic ALT-3-01 soybean plants and wild-type soybean plants were respectively taken and sprayed with halosulfuron-methyl ([…]) and a blank solvent (water). The damage degree caused by the herbicide was measured for each plant according to the leaf curl degree and the growth point damage degree 3 days after spraying (3 DAT), 7 days after spraying (7 DAT), 14 days after spraying (14 DAT) and 21 days after spraying (21 DAT), respectively: considering conditions of leaves being flat as the untreated plants and growth points being intact as having a damage degree of 0%; considering conditions of veins being locally browned, new leaves being malformed and plant growth being slow as having a damage degree of 50%; and considering conditions of veins being purple to whole plant being dead and growth points being browned and dry as having a damage degree of 100%. There were 2 strains in Gm cytoplasmic ALT-1-01 soybean plants in total (S1 and S2), 2 strains in Gm chloroplastic ALT-1-01 soybean plants in total (S3 and S4), 2 strains in Gm cytoplasmic ALT-2-01 soybean plants in total (S5 and S6), 2 strains in Gm chloroplastic ALT-2-01 soybean plants in total (S7 and S8), 2 strains in Gm cytoplasmic ALT-3-01 soybean plants in total (S9 and S10), 2 strains in Gm chloroplastic ALT-3-01 soybean plants in total (S11 and S12), and 1 strain in wild-type soybean plants (CK1) in total; and 10-15 plants were selected from each strain and tested.
# [3] = test system: transgenic maize plants (ALT-1, ALT-2 and ALT-3); experiment: Halosulfuron-methyl tolerance of maize plants; conditions: summary of Table 4
# Procedure: Zm cytoplasmic ALT-1-02 maize plants, Zm chloroplastic ALT-1-02 maize plants, Zm cytoplasmic ALT-2-02 maize plants, Zm chloroplastic ALT-2-02 maize plants, Zm cytoplasmic ALT-3-02 maize plants, Zm chloroplastic ALT-3-02 maize plants and wild-type maize plants were respectively taken and sprayed with halosulfuron-methyl (36 g ai/ha, 4-fold field concentration) and a blank solvent (water). The damage degree caused by the herbicide was measured for each plant according to the plant growth status 3 days after spraying (3 DAT), 7 days after spraying (7 DAT), 14 days after spraying (14 DAT) and 21 days after spraying (21 DAT), respectively: considering a growth status equivalent to that of the untreated plants as having a damage degree of 0%; considering conditions of leaves being partially chlorotic and yellow but substantially not affecting the plant normal growth as having a damage degree of 50%; and considering the whole plant being purple and dying as having a damage degree of 100%. […]
structure (smiles),measurement,setting,value
"COC(=O)c1c(Cl)nn(C)c1S(=O)(=O)NC(=O)Nc1nc(OC)cc(OC)n1 [halosulfuron-methyl, 3-chlorine-5-(4,6-dimethoxypyrimidine-2-aminocarbonylaminosulphonyl)-1-methylpyrazole-4-carboxylic acid methyl ester]",tolerance of the plants to the herbicide,[1],conferred halosulfuron-methyl herbicide tolerance to individual Arabidopsis thaliana plants
same,tolerance of the plants to the herbicide,"[2]; 34 g ai/ha, summary of Table 3",not tolerant
same,Average damage % 3 DAT,"[2]; strain CK1, 34 g ai/ha (Hal.), 3 days after spraying",51%
same,Average damage % 7 DAT,"[2]; strain CK1, 34 g ai/ha (Hal.), 7 days after spraying",87%
same,Average damage % 14 DAT,"[2]; strain CK1, 34 g ai/ha (Hal.), 14 days after spraying",100%
same,Average damage % 21 DAT,"[2]; strain CK1, 34 g ai/ha (Hal.), 21 days after spraying",100%
same,tolerance of the plants to the herbicide,[3],high level of halosulfuron-methyl herbicide tolerance
